Assays:
[1] = target: T1, Tyrosine-protein phosphatase non-receptor type 11 (Homo sapiens, UniProt Q06124); assay: Allosteric inhibition of recombinant human SHP2 using IRS1 peptide and DiFMUP as substrate incubated for 30 mins followed by DiFMUP addition and measured after 30 mins by fluorescence based microplate reader analysis
T1 sequence (Q06124 whole entry): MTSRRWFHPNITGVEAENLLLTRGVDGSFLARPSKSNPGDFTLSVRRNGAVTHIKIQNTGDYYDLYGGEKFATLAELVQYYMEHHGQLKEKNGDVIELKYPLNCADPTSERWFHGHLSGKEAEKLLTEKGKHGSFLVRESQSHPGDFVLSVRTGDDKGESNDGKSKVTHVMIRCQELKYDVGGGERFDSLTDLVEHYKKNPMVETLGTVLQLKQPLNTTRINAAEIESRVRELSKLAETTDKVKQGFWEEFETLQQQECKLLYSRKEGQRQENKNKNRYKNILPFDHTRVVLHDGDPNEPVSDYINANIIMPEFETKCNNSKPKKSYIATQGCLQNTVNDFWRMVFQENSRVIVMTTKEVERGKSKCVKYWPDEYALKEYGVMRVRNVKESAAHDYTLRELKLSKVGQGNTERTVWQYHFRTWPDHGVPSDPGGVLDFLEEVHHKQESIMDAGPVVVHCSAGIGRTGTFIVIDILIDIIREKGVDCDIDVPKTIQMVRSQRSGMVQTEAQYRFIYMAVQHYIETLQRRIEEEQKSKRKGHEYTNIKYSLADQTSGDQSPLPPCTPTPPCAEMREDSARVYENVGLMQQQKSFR

[2] = Inhibition of ERK phosphorylation in human KYSE520 cells incubated for 2 hrs by TR-FRET assay; format: cell-based; conditions: KYSE-520, 2 h
[3] = target: Voltage-gated inwardly rectifying potassium channel KCNH2 (Homo sapiens, UniProt Q12809); assay: Inhibition of human ERG by fluorescence polarization assay; format: toxicity
Chain of Voltage-gated inwardly rectifying potassium channel KCNH2 (Q12809 whole entry): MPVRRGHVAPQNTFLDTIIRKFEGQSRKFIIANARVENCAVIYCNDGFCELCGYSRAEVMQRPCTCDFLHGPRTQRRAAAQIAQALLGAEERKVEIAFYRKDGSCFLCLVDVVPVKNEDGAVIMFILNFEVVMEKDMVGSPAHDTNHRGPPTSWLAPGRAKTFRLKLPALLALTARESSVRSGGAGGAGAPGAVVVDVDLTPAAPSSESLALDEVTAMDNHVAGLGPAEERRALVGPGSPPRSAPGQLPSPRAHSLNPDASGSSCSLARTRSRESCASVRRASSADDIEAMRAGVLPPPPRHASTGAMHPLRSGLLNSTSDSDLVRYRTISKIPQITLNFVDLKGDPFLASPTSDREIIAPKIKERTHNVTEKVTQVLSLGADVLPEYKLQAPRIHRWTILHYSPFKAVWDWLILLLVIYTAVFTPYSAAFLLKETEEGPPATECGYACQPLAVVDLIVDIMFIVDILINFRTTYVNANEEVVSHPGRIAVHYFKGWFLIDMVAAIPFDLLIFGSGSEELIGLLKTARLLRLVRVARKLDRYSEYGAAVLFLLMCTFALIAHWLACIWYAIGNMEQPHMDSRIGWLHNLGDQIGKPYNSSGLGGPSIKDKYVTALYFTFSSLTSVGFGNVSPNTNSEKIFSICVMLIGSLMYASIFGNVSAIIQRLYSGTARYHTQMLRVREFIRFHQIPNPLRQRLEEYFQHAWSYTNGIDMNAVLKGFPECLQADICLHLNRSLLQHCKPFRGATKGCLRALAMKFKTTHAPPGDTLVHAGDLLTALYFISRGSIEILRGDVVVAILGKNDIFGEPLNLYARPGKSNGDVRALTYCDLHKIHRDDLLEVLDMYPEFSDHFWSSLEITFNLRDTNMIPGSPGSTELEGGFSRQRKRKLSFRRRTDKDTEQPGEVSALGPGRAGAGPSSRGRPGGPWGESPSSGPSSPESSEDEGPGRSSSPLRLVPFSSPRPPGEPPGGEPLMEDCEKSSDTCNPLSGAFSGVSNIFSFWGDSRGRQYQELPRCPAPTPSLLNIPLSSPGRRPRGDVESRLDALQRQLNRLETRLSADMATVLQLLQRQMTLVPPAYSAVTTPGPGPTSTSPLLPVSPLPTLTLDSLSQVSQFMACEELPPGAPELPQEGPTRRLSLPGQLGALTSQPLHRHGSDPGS

[4] = test system: KYSE-520 cell line; assay: Antiproliferative activity against human KYSE520 cells assessed as inhibition of cell proliferation incubated for 96 hrs by CellTiter-Glo reagent based assay; format: functional; conditions: KYSE-520, 96 h

**Q.** What does the source list for `NC[C@]1(c2ccccn2)[C@@H]2CCN(c3cnc(Sc4cccnc4C(F)(F)F)c(N)n3)C[C@@H]21`?
**A.** IC50 [1]: 68 nM; IC50 [2]: 20 nM

**Q.** With `NC[C@]1(c2ccccn2)[C@@H]2CCN(c3cnc4c(-c5cccc(Cl)c5Cl)n[nH]c4n3)C[C@@H]21` as the compound, how does the IC50 [1] read?
**A.** 5 nM

**Q.** What about the IC50 [2] of the same compound?
**A.** 42 nM

**Q.** What about the IC50 [3] of the same compound?
**A.** 0.042 µM

**Q.** For `NC[C@]1(c2ccccc2)[C@@H]2CCN(c3cnc(Sc4cccnc4C(F)(F)F)c(N)n3)C[C@@H]21`, which IC50 [1] is on record?
**A.** 360 nM

**Q.** For `Cn1cc2c(Cl)c(-c3n[nH]c4nc(N5C[C@@H]6[C@H](C5)[C@@]6(CN)c5nc(Cl)cs5)cnc34)ccc2n1`, which IC50 [1] is on record?
**A.** 5 nM

**Q.** What about the IC50 [4] of the same compound?
**A.** 183 nM

**Q.** And the IC50 [2]?
**A.** 9 nM

**Q.** And the IC50 [3]?
**A.** 12.3 µM

**Q.** With `Cc1csc([C@]2(CN)[C@@H]3CN(c4cnc5c(-c6cccc(Cl)c6Cl)n[nH]c5n4)CC[C@@H]32)n1` as the compound, how does the IC50 [1] read?
**A.** 370 nM

**Q.** What about the IC50 [3] of the same compound?
**A.** 0.769 µM

**Q.** Which IC50 [1] does the source give for `Cn1cc2c(Cl)c(-c3n[nH]c4nc(N5C[C@@H]6[C@H](C5)[C@@]6(CN)c5nc(C(F)(F)F)cs5)cnc34)ccc2n1` here?
**A.** 12 nM

**Q.** What about the IC50 [4] of the same compound?
**A.** 231 nM

**Q.** And the IC50 [2]?
**A.** 21 nM

**Q.** And the IC50 [3]?
**A.** > 30 µM

**Q.** For `Cn1ccc([C@@]2(CN)[C@@H]3CN(c4cnc5c(-c6ccc7nn(C)cc7c6Cl)n[nH]c5n4)C[C@@H]32)n1`, which IC50 [1] is on record?
**A.** 7 nM

**Q.** And the IC50 [2]?
**A.** 153 nM

**Q.** What about the IC50 [3] of the same compound?
**A.** > 30 µM

**Q.** For `Cc1csc([C@@]2(CN)[C@@H]3CN(c4cnc5c(-c6ccc7nc(C)sc7c6Cl)n[nH]c5n4)C[C@@H]32)n1`, which IC50 [1] is on record?
**A.** 5 nM

**Q.** What about the IC50 [2] of the same compound?
**A.** 22 nM

**Q.** And the IC50 [3]?
**A.** 1.66 µM

**Q.** Which IC50 [1] does the source give for `Cc1ccn([C@@]2(CN)[C@@H]3CN(c4cnc5c(-c6ccc7nn(C)cc7c6Cl)n[nH]c5n4)C[C@@H]32)n1` here?
**A.** 49 nM

**Q.** And the IC50 [2]?
**A.** 444 nM

**Q.** What about the IC50 [3] of the same compound?
**A.** > 30 µM

**Q.** Which IC50 [1] does the source give for `Cn1cc2c(Cl)c(-c3n[nH]c4nc(N5C[C@@H]6[C@H](C5)[C@@]6(CN)c5ccccn5)cnc34)ccc2n1` here?
**A.** 5 nM

**Q.** And the IC50 [2]?
**A.** 40 nM

**Q.** What about the IC50 [3] of the same compound?
**A.** 8.96 µM

**Q.** For `NC[C@]1(c2ccsc2)[C@@H]2CCN(c3cnc4c(-c5cccnc5C(F)(F)F)n[nH]c4n3)C[C@@H]21`, which IC50 [1] is on record?
**A.** 34 nM

**Q.** What about the IC50 [2] of the same compound?
**A.** > 666 nM

**Q.** What about the IC50 [3] of the same compound?
**A.** 5.56 µM

**Q.** With `Cc1nnc([C@@]2(CN)[C@@H]3CN(c4cnc5c(-c6ccc7nn(C)cc7c6Cl)n[nH]c5n4)C[C@@H]32)s1` as the compound, how does the IC50 [1] read?
**A.** 10 nM

**Q.** And the IC50 [2]?
**A.** 162 nM

**Q.** What about the IC50 [3] of the same compound?
**A.** > 30 µM

**Q.** Which results are given for `NC[C@]1(c2ccsc2)[C@@H]2CCN(c3nc4nc(Sc5cccnc5C(F)(F)F)cnc4[nH]3)C[C@@H]21`?
**A.** IC50 [1]: 54 nM; IC50 [2]: > 1330 nM

**Q.** Which results are given for `NC[C@]1(c2ccccc2)[C@@H]2CCN(c3nc4nc(Sc5cccnc5C(F)(F)F)cnc4[nH]3)C[C@@H]21`?
**A.** IC50 [1]: 94 nM; IC50 [2]: > 1330 nM

**Q.** What does the source list for `Cn1cc2c(Cl)c(-c3n[nH]c4nc(N5C[C@@H]6[C@H](C5)[C@@]6(CN)c5cnsn5)cnc34)ccc2n1`?
**A.** IC50 [1]: 4 nM; IC50 [2]: 30 nM; IC50 [3]: > 30 µM

**Q.** Which results are given for `Cc1nc([C@@]2(CN)[C@@H]3CN(c4cnc5c(-c6ccc7nn(C)cc7c6Cl)n[nH]c5n4)C[C@@H]32)cs1`?
**A.** IC50 [1]: 6 nM; IC50 [2]: 89 nM; IC50 [3]: > 30 µM

**Q.** For `Cn1cc2c(Cl)c(-c3n[nH]c4nc(N5C[C@@H]6[C@H](C5)[C@@]6(CN)c5nccs5)cnc34)ccc2n1`, which IC50 [1] is on record?
**A.** 4 nM

**Q.** What about the IC50 [2] of the same compound?
**A.** 60 nM

**Q.** And the IC50 [3]?
**A.** 13.5 µM

**Q.** Which IC50 [1] does the source give for `NC[C@]1(c2ccccn2)[C@@H]2CCN(c3nc4nc(Sc5cccnc5C(F)(F)F)cnc4[nH]3)C[C@@H]21` here?
**A.** 17 nM

**Q.** And the IC50 [2]?
**A.** 477 nM

**Q.** Which IC50 [1] does the source give for `N[C@]1(c2ccccc2)[C@@H]2CN(c3nc4nc(Sc5cccnc5C(F)(F)F)cnc4[nH]3)C[C@@H]21` here?
**A.** > 8000 nM

— ChEMBL document CHEMBL5257132, “Discovery of a Novel Series of Potent SHP2 Allosteric Inhibitors” (ACS Med Chem Lett, 2023)
